What was measured:
Format in all cases: cell-based, human
EXT1 = experiment: DNA microarray, EXT1 expression in fibroblasts exposed to genistein
Method: (§1) The experiments were conducted to characterise the transcriptomic profile of human fibroblast cells exposed to genistein, and in particular to determine the expression of genes encoding lysosomal enzymes involved in metabolism (i.e. synthesis and degradation) of organic substances. The absence or deficiency of these enzymes' activity is responsible for occurrence of various lysosomal storage diseases (LSD) (including MPS). The tested hypothesis assumed that genistein influences the expression of many genes, among which there are genes coding for enzymes required in metabolism of compounds, which are pathologically stored in LSD. The results provide important information regarding genistein action on the molecular level within the range of gene expression modulation by this substance. The experiment was conducted in biological quintuplicates. Human dermal fibroblasts (HDFa) were exposed in vitro for 1, 24 or 48 hours to: 30, 60 or 100 μM of genistein; 0.05% DMSO (K1); or were untreated (control cells) (K2), and total RNA was isolated and analysed.
(§2) Fibroblast cells were grown in Dulbecco (DMEM) medium supplemented with 10% fetal bovine serum (FBS) with the addition of 1% antibiotics and anti-fungal agents at 37° C. in humidified atmosphere of 5% CO2, until the required confluency was obtained.
(§3) To determine the effect of tested compound on the transcriptom of the fibroblast cells, the growth medium was replaced with fresh medium, either non-supplemented (0.05% DMSO), or containing genistein (30, 60 or 100 μM, in 0.05% DMSO). The exposure was done for 1, 24 or 48 hours.
(§4) Total RNA was isolated from fibroblasts using High Pure RNA Isolation Kit according to the protocol and then it was quantitatively evaluated using Quant-It™ RiboGreen® Assay Kit.
(§5) Biotinylated cRNA was prepared using Ambion Total PrepAmp Kit for Illumina arrays.
(§6) Standard hybridization and quantitative image analysis procedures—Illumina hybridization protocol and Illumina scanning protocol, were used.
(§7) Processing of the results was done during data definition, including: background correction (using background subtraction method), normalization (using quantile normalization algorithm with Illumina GenomeStudio software package: gene expression module version 1.9.0) and summarization (using method, which sums the values of signal intensities from a set of probes).

MCOLN1 = experiment: DNA microarray, MCOLN1 expression in fibroblasts exposed to genistein; conditions: for MCOLN1 fold change Average: 48 h vs DMSO
Method: as §1, §2, §3, §4, §5, §6, §7

GAPDH = experiment: DNA microarray, GAPDH reference gene expression in fibroblasts exposed to genistein
Method: as §1, §2, §3, §4, §5, §6, §7

SLC11A2 = experiment: DNA microarray, SLC11A2 expression in fibroblasts exposed to genistein; conditions: for SLC11A2 fold change Average: 48 h vs DMSO
Method: as §1, §2, §3, §4, §5, §6, §7

ST3GAL2 = experiment: DNA microarray, ST3GAL2 expression in fibroblasts exposed to genistein
Method: as §1, §2, §3, §4, §5, §6, §7

CLN5 = experiment: DNA microarray, CLN5 expression in fibroblasts exposed to genistein; conditions: for CLN5 fold change Average: 48 h vs DMSO
Method: as §1, §2, §3, §4, §5, §6, §7

GBA = experiment: DNA microarray, GBA expression in fibroblasts exposed to genistein; conditions: for GBA fold change Average: 48 h vs DMSO
Method: as §1, §2, §3, §4, §5, §6, §7

## O=c1c(-c2ccc(O)cc2)coc2cc(O)cc(O)c12 [genistein, 4′,5,7-trihydroxy-3-phenylchromen-4-one]
EXT1; 60 μM, 48 h vs 0.05% DMSO
  EXT1 fold change Average 48h61/48hK1: 0.7648 fold change
EXT1; 100 μM, 1 h vs 0.05% DMSO
  EXT1 fold change Average 1h100/1hK1: 0.8358 fold change
EXT1; 100 μM, 24 h vs 0.05% DMSO
  EXT1 fold change Average 24h100/24hK1: 0.6022 fold change
EXT1; 100 μM, 48 h vs 0.05% DMSO
  EXT1 fold change Average 48h100/48hK1: 0.689 fold change
MCOLN1; 30 μM, 1 h vs 0.05% DMSO
  MCOLN1 fold change Average 1h30/1hK1: 1.065 fold change
MCOLN1; 60 μM, 1 h vs 0.05% DMSO
  MCOLN1 fold change Average 1h60/1hK1: 1.038 fold change
MCOLN1; 60 μM
  MCOLN1 fold change Average: 1.439 fold change
MCOLN1; 100 μM, 1 h vs 0.05% DMSO
  MCOLN1 fold change Average 1h100/1hK1: 1.013 fold change
MCOLN1; 100 μM
  MCOLN1 fold change Average: 1.482 fold change
GAPDH; 30 μM, 1 h vs 0.05% DMSO
  GAPDH fold change Average 1h30/1hK1: 0.9592 fold change
GAPDH; 30 μM, 24 h vs 0.05% DMSO
  GAPDH fold change Average 24h30/24hK1: 0.93 fold change
GAPDH; 30 μM, 48 h vs 0.05% DMSO
  GAPDH fold change Average 48h30/48hK1: 0.9412 fold change
GAPDH; 60 μM, 1 h vs 0.05% DMSO
  GAPDH fold change Average 1h60/1hK1: 0.9817 fold change
GAPDH; 60 μM, 24 h vs 0.05% DMSO
  GAPDH fold change Average 24h60/24hK1: 0.8905 fold change
GAPDH; 60 μM, 48 h vs 0.05% DMSO
  GAPDH fold change Average 48h60/48hK1: 0.8088 fold change
GAPDH; 100 μM, 1 h vs 0.05% DMSO
  GAPDH fold change Average 1h100/1hK1: 0.9385 fold change
GAPDH; 100 μM, 24 h vs 0.05% DMSO
  GAPDH fold change Average 24h100/24hK1: 0.9556 fold change
GAPDH; 100 μM, 48 h vs 0.05% DMSO
  GAPDH fold change Average 48h100/48hK1: 0.8652 fold change
SLC11A2; 30 μM, 1 h vs 0.05% DMSO
  SLC11A2 fold change Average 1h30/1hK1: 1.0227 fold change
SLC11A2; 30 μM
  SLC11A2 fold change Average: 1.2196 fold change
SLC11A2; 60 μM, 1 h vs 0.05% DMSO
  SLC11A2 fold change Average 1h60/1hK1: 1.053 fold change
SLC11A2; 60 μM
  SLC11A2 fold change Average: 1.549 fold change
SLC11A2; 100 μM, 1 h vs 0.05% DMSO
  SLC11A2 fold change Average 1h100/1hK1: 1.056 fold change
SLC11A2; 100 μM
  SLC11A2 fold change Average: 1.499 fold change
ST3GAL2; 30 μM, 1 h vs 0.05% DMSO
  ST3GAL2 fold change Average 1h30/1hK1: 1.155 fold change
ST3GAL2; 30 μM, 24 h vs 0.05% DMSO
  ST3GAL2 fold change Average 24h30/24hK1: 0.7505 fold change
ST3GAL2; 30 μM, 48 h vs 0.05% DMSO
  ST3GAL2 fold change Average 48h30/48hK1: 0.797 fold change
ST3GAL2; 60 μM, 1 h vs 0.05% DMSO
  ST3GAL2 fold change Average 1h60/1hK1: 1.467 fold change
ST3GAL2; 60 μM, 24 h vs 0.05% DMSO
  ST3GAL2 fold change Average 24h60/24hK1: 0.5068 fold change
ST3GAL2; 100 μM, 1 h vs 0.05% DMSO
  ST3GAL2 fold change Average 1h100/1hK1: 1.338 fold change
ST3GAL2; 100 μM, 24 h vs 0.05% DMSO
  ST3GAL2 fold change Average 24h100/24hK1: 0.6299 fold change
ST3GAL2; 100 μM, 48 h vs 0.05% DMSO
  ST3GAL2 fold change Average 48h100/48hK1: 0.7215 fold change
CLN5; 30 μM, 1 h vs 0.05% DMSO
  CLN5 fold change Average 1h30/1hK1: 1.0505 fold change
CLN5; 30 μM
  CLN5 fold change Average: 1.3471 fold change
CLN5; 60 μM, 1 h vs 0.05% DMSO
  CLN5 fold change Average 1h60/1hK1: 1.028 fold change
CLN5; 60 μM
  CLN5 fold change Average: 1.79 fold change
CLN5; 100 μM, 1 h vs 0.05% DMSO
  CLN5 fold change Average 1h100/1hK1: 1.05 fold change
CLN5; 100 μM
  CLN5 fold change Average: 2.125 fold change
GBA; 30 μM, 1 h vs 0.05% DMSO
  GBA fold change Average 1h30/1hK1: 0.9138 fold change
GBA; 30 μM
  GBA fold change Average: 1.257 fold change
GBA; 60 μM, 1 h vs 0.05% DMSO
  GBA fold change Average 1h60/1hK1: 1.033 fold change
GBA; 60 μM
  GBA fold change Average: 1.467 fold change
GBA; 100 μM, 1 h vs 0.05% DMSO
  GBA fold change Average 1h100/1hK1: 0.9469 fold change
GBA; 100 μM
  GBA fold change Average: 1.606 fold change

Reference: patent US20150148551A1, “GENISTEIN FOR REDUCING LEVELS OF STORAGE COMPOUNDS IN THE TREATMENT AND/OR PREVENTION OF LYSOSOMAL STORAGE DISEASES (LSDS)” (3G THERAPEUTICS, INC., priority 2012, published 2015)
